Target: T1, human recombinant histamine H2 receptor (Homo sapiens, UniProt P25021)
T1 construct: expressed in transfected cells; host or cells: Chinese hamster ovary (CHO) K1 cells
Assay: Histamine H2 radioligand binding (Aminopotentidine)
Details: read-out: Binding data (Percentage Inhibition) Histamine Binding H2
Procedure: To evaluate in radioligand binding assays the activity of compounds of the invention, human recombinant histamine H2 receptor expressed in Chinese hamster ovary (CHO) K1 cells [Ruat, M., Proc. Natl. Acad. Sci. USA. (1990), 87(5):1658] in a 50 mM Phosphate buffer, pH 7.4 was used. Compounds of the invention were incubated with 0.1 nM […] for 120 min at 25° C. Non-specific binding was estimated in the presence of 3 μM Tiotidine. Receptor proteins were filtered and washed, the filters were then counted to determine […] specifically bound. Compounds were screened at 1 μM or lower, using 1% DMSO as vehicle. Biochemical assay results are presented as the percent inhibition of specific binding in Table 2.

T1 sequence (P25021 whole entry): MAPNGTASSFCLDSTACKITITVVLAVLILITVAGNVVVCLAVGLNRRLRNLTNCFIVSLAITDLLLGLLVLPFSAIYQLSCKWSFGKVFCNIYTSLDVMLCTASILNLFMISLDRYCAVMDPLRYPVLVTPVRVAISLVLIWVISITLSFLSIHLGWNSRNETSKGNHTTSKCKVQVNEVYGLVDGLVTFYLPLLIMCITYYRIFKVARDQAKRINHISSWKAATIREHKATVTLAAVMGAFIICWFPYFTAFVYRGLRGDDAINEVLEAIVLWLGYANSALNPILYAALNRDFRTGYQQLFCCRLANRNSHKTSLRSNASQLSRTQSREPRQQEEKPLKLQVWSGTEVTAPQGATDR

SMILES | inhibition at 1 µM [%]
Fc1ccc(CCn2c3c(c4cc(Cl)ccc42)C2CCCN2CC3)cc1 (centres unmarked) [Compound 1, 7-(4-fluorophenethyl)-10-chloro-2,3,5,6,7,11c-hexahydro-1H-indolizino[7,8-b]indole] | 15
Fc1ccc(CCn2c3c(c4cc(Cl)ccc42)CN2CCCC2C3)cc1 (centres unmarked) [Compound 2, 10-(4-fluorophenethyl)-7-chloro-2,3,5,10,11,11a-hexahydro-1H-indolizino[7,6-b]indole] | 17

Reference: US9045482B2, “Pyrido[4,3-B]indoles and methods of use” (Medivation Technologies, Inc., priority 2009, dated 2015)
